# “And” between values parts separate entries of the source, which are not always exact repeats. Equal values may be shown once. Where a name gives a salt, the structure may show the parent alone.
# Target: T1, EGFR del746-750 T790M (Homo sapiens, UniProt P00533, DEL746-750/T790M)
# T1 construct: purchased Carna Biosciences 08-528
# Assay: EGFR del746-750 T790M biochemical assay (Caliper mobility shift)
# Conditions: 5 μM ATP, 30 min, room temperature; apparent Ki (Morrison) converted by Cheng-Prusoff, Km of ATP 2.1 μM; read-out: EGFR(T790M/d746-750) Ki
# T1 sequence (P00533 with tags, fused parts or gaps DEL746-750/T790M limits assumed): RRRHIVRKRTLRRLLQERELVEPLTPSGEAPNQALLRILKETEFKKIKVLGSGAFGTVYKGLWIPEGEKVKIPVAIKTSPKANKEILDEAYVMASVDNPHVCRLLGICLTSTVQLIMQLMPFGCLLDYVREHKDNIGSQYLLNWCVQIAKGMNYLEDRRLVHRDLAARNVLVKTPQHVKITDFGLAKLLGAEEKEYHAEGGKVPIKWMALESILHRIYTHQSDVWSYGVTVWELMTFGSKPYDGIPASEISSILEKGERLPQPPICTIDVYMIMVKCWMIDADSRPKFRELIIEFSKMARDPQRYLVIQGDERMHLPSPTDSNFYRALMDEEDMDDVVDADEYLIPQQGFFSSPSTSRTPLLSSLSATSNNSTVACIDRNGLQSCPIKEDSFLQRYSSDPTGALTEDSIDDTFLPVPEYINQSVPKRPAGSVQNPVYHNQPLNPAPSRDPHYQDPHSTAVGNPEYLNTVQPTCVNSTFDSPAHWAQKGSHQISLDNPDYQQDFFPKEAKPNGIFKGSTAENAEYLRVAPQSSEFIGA
row,Ki,Structure (SMILES)
1,0.214 µM,Cc1nc2cnc(Nc3ccnc(OCC(C)(C)S(C)(=O)=O)n3)cc2n1C(C)C [Example 656]
2,0.168 µM,Cc1nc2cnc(Nc3ccnc(N4CC[C@H](C#N)C4)n3)cc2n1C(C)C [Example 679]
3,0.092 µM and 0.02 µM,CC(C)n1c(CO)nc2cnc(Nc3ccnc(N4C[C@@H](F)[C@@H](O)C(C)(C)C4)n3)cc21 [Example 650]
4,0.00818 µM,C[C@H](n1c([C@@H](C)O)nc2cnc(Nc3ccnc(N4CC[C@](C)(O)[C@H](F)C4)n3)cc21)C(F)(F)F [Example 676]
5,0.0185 µM,C[C@H](O)c1nc2cnc(Nc3ccnc(N4CC[C@H](O)[C@H](F)C4)n3)cc2n1[C@@H](C)C(F)(F)F [Example 686]
6,0.451 µM,CC(C)n1c(CO)nc2cnc(Nc3ccnc(N4CCCCC4CCO)n3)cc21 (stereo not shown) [Example 668]
7,2.96 µM,"CO[C@@H]1CCN(c2nccc(Nc3cc4c(cn3)nc(CO)n4C(C)C)n2)C[C@H]1C(F)(F)F (racemic) [Example 629, (1-Isopropyl-6-(2-((±)-(trans)-4-methoxy-3-(trifluoromethyl)piperidin-1-yl)pyrimidin-4-ylamino)-1H-imidazo[4,5-c]pyridin-2-yl)methanol]"
8,0.0386 µM,"Cc1nc2cnc(Nc3ccnc(-c4cn(CC5CC5)nc4Cl)n3)cc2n1C(C)C [Example 625, N-(2-(3-Chloro-1-(cyclopropylmethyl)-1H-pyrazol-4-yl)pyrimidin-4-yl)-1-isopropyl-2-methyl-1H-imidazo[4,5-c]pyridin-6-amine]"
9,0.128 µM,"Cc1nc2cnc(Nc3ccnc(N4CCC(O)CC4)n3)cc2n1C(C)C [Example 503, 1-(4-((1-Isopropyl-2-methyl-1H-imidazo[4,5-c]pyridin-6-yl)amino)pyrimidin-2-yl)piperidin-4-ol]"
10,0.0684 µM,C[C@H](n1c([C@@H](C)O)nc2cnc(Nc3ccnc(N4CCC(S(C)(=O)=O)CC4)n3)cc21)C(F)(F)F [Example 662]
11,0.000773 µM,"CNc1nc(C)c(-c2nccc(Nc3cc4c(cn3)nc(C)n4C(C)C)n2)s1 [Example 611, (1-Isopropyl-2-methyl-1H-imidazo[4,5-c]pyridin-6-yl)-[2-(4-methyl-2-methylaminothiazol-5-yl)pyrimidin-4-yl]amine]"
12,0.00334 µM,"Cc1nc2cnc(Nc3ccnc(-c4cnc(N)s4)n3)cc2n1C(C)C [Example 614, [2-(2-Aminothiazol-5-yl)pyrimidin-4-yl]-(1-isopropyl-2-methyl-1H-imidazo[4,5-c]pyridin-6-yl)amine]"
13,0.00217 µM,"CC(CC1CC1)n1c(CO)nc2cnc(Nc3ccnc(-c4cnn(S(=O)(=O)C5CC5)c4)n3)cc21 (stereo not shown) [Example 488, (1-(1-cyclopropylpropan-2-yl)-6-(2-(1-(cyclopropylsulfonyl)-1H-pyrazol-4-yl)pyrimidin-4-ylamino)-1H-imidazo[4,5-c]pyridin-2-yl)methanol]"
14,0.222 µM,"CO[C@H]1CCN(c2nccc(Nc3cc4c(cn3)nc(C)n4C(C)C)n2)C[C@@H]1F (racemic) [Example 525, (±)-[2-((trans)-3-Fluoro-4-methoxypiperidin-1-yl)pyrimidin-4-yl]-(1-isopropyl-2-methyl-1H-imidazo[4,5-c]pyridin-6-yl)amine]"
15,0.483 µM,"Cc1nc2cnc(Nc3ccnc(N4CC[C@@H](S(C)(=O)=O)[C@H](F)C4)n3)cc2n1C(C)C (racemic) [Example 616, [2-(±)-(trans-3-Fluoro-4-methanesulfonylpiperidin-1-yl)pyrimidin-4-yl]-(1-isopropyl-2-methyl-1H-imidazo[4,5-c]pyridin-6-yl)amine]"
16,0.0483 µM,"CO[C@H]1CCN(c2nccc(Nc3cc4c(cn3)nc(C)n4C(C)C)n2)C[C@H]1F (racemic) [Example 608, [2-((3RS,4SR)-3-Fluoro-4-methoxypiperidin-1-yl)pyrimidin-4-yl]-(1-isopropyl-2-methyl-1H-imidazo[4,5-c]pyridin-6-yl)amine]"
17,1.25 µM,"CC(C)n1c(CO)nc2cnc(Nc3ccnc(N4CC[C@H](O)[C@H](C(F)(F)F)C4)n3)cc21 (racemic) [Example 626, (±)-(cis)-1-(4-(2-(Hydroxymethyl)-1-isopropyl-1H-imidazo[4,5-c]pyridin-6-ylamino)pyrimidin-2-yl)-3-(trifluoromethyl)piperidin-4-ol]"

# The next lines start with the compound.
row,Structure (SMILES),Ki
1,"COC1CCN(c2nccc(Nc3cc4c(cn3)c(-c3cnn(CC(N)=O)c3)cn4C(C)C)n2)CC1 [Example 410, 2-(4-(1-isopropyl-6-((2-(4-methoxypiperidin-1-yl)pyrimidin-4-yl)amino)-1H-pyrrolo[3,2-c]pyridin-3-yl)-1H-pyrazol-1-yl)acetamide]",0.00486 µM
2,"COc1nc2cnc(Nc3ccnc(N4CCC(OC)CC4)n3)cc2n1C(C)C [Example 11, (1-Isopropyl-2-methoxy-1H-imidazo[4,5-c]pyridin-6-yl)-[2-(4-methoxypiperidin-1-yl)pyrimidin-4-yl]amine]",0.0984 µM
3,"COC1CCN(c2nccc(Nc3cc4c(cn3)nc(CN(C)C)n4C(C)C)n2)CC1 [Example 9, (2-Dimethylaminomethyl-1-isopropyl-1H-imidazo[4,5-c]pyridin-6-yl)-[2-(4-methoxypiperidin-1-yl)pyrimidin-4-yl]amine formate salt]",0.417 µM
4,"CC(C)n1cc(-c2cnn(C3COC3)c2)c2cnc(Nc3ccnc(-c4cnn(S(=O)(=O)C5CC5)c4)n3)cc21 [Example 441, N-(2-(1-(cyclopropylsulfonyl)-1H-pyrazol-4-yl)pyrimidin-4-yl)-1-isopropyl-3-(1-(oxetan-3-yl)-1H-pyrazol-4-yl)-1H-pyrrolo[3,2-c]pyridin-6-amine]",0.0008 µM
5,"Cc1nc2cnc(Nc3ccnc(-c4cnn(S(=O)(=O)C5CCNC5)c4)n3)cc2n1C(C)C (stereo not shown) [Example 258, 1-Isopropyl-2-methyl-N-(2-(1-(pyrrolidin-3-ylsulfonyl)-1H-pyrazol-4-yl)pyrimidin-4-yl)-1H-imidazo[4,5-c]pyridin-6-amine]",0.00425 µM
6,"COC1CCN(c2nccc(Nc3cc4c(cn3)nc(C)n4C(C)(C)C)n2)CC1 [Example 163, (1-tert-butyl-2-methyl-1H-imidazo[4,5-c]pyridin-6-yl)-[2-(4-methoxypiperidin-1-yl)pyrimidin-4-yl]amine]",0.0149 µM
7,"CCC(C)n1cc(C(=O)NC2CCN(C3COC3)CC2)c2cnc(Nc3ccnc(-c4cnn(S(=O)(=O)C5CC5)c4)n3)cc21 (racemic) [Example 371, (±)-1-(sec-butyl)-6-((2-(1-(cyclopropylsulfonyl)-1H-pyrazol-4-yl)pyrimidin-4-yl)amino-N-(1-(oxetan-3-yl)piperidin-4-yl)-1H-pyrrolo[3,2-c]pyridine-3-carboxamide]",0.00116 µM
8,"CC[C@@H](C)n1cc(C(=O)NC2CCOCC2)c2cnc(Nc3ccnc(N4CC[C@H](OC)[C@H](F)C4)n3)cc21 (single isomer, unassigned) [Example 339]",0.00412 µM
9,"CO[C@H]1CCN(c2nccc(Nc3cc4c(cn3)c(C(=O)NC3CCOCC3)cn4C(C)C)n2)C[C@H]1F [Example 381, 6-((2-((3R,4S)-3-fluoro-4-methoxypiperidin-1-yl)pyrimidin-4-yl)amino)-1-isopropyl-N-(tetrahydro-2H-pyran-4-yl)-1H-pyrrolo [3,2-c]pyridine-3-carboxamide]",0.00929 µM
10,"CCC(C)n1cc(C(=O)NC2CCOCC2)c2cnc(Nc3ccnc(-c4cnn(S(=O)(=O)C5CC5)c4)n3)cc21 (single isomer, unassigned; (+)) [Example 321, (+)-1-(sec-Butyl)-6-((2-(1-(cyclopropylsulfonyl)-1H-pyrazol-4-yl)pyrimidin-4-yl)amino)-N-(tetrahydro-2H-pyran-4-yl)-1H-pyrrolo[3,2-c]pyridine-3-carboxamide]",0.00145 µM
11,"CC(C)n1cnc2cnc(Nc3ccnc(N4CCC5(CCCO5)CC4)n3)cc21 [Example 141, (1-Isopropyl-1H-imidazo[4,5-c]pyridin-6-yl)-[2-(1-oxa-8-azaspiro[4.5]dec-8-yl)pyrimidin-4-yl]amine formate salt]",0.0555 µM
12,"COC1CCN(c2nccc(Nc3cc4c(cn3)c(C(=O)NC3CCN(C)CC3)cn4C(C)C)n2)CC1 [Example 114, 1-isopropyl-6-((2-(4-methoxypiperidin-1-yl)pyrimidin-4-yl)amino)-N-(1-methylpiperidin-4-yl)-1H-pyrrolo[3,2-c]pyridine-3-carboxamide]",0.0021 µM

# Target: T2, phosphor-EGFR in H1975(L585R/T790M) mutant EGFR expressing cells (Homo sapiens, UniProt P00533, L858R/T790M)
# T2 construct: host or cells: NCI-H1975
# Assay: H1975 pEGFR MSD cellular assay
# Assay type: cell-based
# Conditions: NCI-H1975 cells, serum starved, 1 hour compound incubation, pEGFR Tyr1068 MSD
# Experimental: H1975 pEGFR MSD Cellular Assays Background:
# These assays are intended for determining cellular. […] (Meso Scale Discovery Catalog# N31CB-1).
# All cell culture reagents were purchased from Invitrogen/Gibco. Cells are cultured at 37° C. at 5% CO2 and split as recommended by ATCC.
# Cell Plating and Serum Starvation:
# After six hours, culture medium is aspirated and replaced with serum-free culture medium. Cells are then incubated with the serum-free medium overnight at 37° C. and 5% CO2.
# The following day, test compounds are serially diluted in dimethyl sulfoxide (DMSO) and added to cells in serum free medium (final DMSO concentration 0.5%). Assay plates are then incubated for 1 hour at 37° C. and 5% CO2. Following 1 hour of compound incubation cells are then lysed and processed as per the MSD pEGFR assay kit protocol. Cell lysates are added to assay plates pre-coated with antibodies against phosphorylated EGFR. Phosphorylated EGFR in samples are allowed to bind to the capture antibodies overnight at 4° C. The detection antibody (anti-total EGFR, labeled with an electrochemiluminescent SULFO-TAG) is added to the bound lysate and incubated for 1 hour at room temperature. The MSD Read Buffer is added such that when a voltage is applied to the plate electrodes, the labels bound to the electrode surface emit light. The MSD Sector Instrument measures the intensity of the light, and quantitatively measures the amount of phosphorylated-EGFR in the sample. Percent inhibition of EGFR phosphorylation by varying concentrations of test compounds is calculated relative to untreated controls. EC50 values are calculated using the 4 parameter logistic nonlinear regression dose-response model.
# T2 sequence (P00533 25-1210 T790M/L858R): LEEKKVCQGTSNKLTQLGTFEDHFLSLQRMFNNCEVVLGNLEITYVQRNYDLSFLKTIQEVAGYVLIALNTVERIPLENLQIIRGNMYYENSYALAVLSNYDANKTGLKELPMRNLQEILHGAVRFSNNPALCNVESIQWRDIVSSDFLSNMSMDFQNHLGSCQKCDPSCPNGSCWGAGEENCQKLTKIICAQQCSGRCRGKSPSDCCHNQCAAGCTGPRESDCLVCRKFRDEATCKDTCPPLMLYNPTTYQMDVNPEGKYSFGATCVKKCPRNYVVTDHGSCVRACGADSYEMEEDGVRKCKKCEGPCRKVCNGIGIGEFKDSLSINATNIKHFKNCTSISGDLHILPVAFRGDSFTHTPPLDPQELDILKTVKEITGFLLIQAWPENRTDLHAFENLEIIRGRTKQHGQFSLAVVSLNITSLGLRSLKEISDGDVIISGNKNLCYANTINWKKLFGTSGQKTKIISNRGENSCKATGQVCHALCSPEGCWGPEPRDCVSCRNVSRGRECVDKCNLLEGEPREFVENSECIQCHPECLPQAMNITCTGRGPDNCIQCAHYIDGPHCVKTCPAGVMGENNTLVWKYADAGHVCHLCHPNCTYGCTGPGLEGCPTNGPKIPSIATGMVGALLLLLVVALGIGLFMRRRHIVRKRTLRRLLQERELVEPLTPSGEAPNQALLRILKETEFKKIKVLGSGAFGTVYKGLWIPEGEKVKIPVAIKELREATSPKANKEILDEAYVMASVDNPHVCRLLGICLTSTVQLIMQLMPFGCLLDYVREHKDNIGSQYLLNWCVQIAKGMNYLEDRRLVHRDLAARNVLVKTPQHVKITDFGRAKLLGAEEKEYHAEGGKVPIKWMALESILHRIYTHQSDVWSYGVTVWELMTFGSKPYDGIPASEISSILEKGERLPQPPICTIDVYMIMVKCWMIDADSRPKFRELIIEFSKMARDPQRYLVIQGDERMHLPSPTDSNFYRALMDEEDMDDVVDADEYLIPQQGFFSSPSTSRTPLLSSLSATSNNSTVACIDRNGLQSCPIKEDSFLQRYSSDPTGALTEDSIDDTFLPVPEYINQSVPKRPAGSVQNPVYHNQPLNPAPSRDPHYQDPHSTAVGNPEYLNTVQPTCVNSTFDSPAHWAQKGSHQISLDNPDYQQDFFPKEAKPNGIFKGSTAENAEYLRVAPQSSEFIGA
row,EC50,Structure (SMILES)
1,4.71 µM,"COCC(C)(C)n1c(C)nc2cnc(Nc3ccnc(N4CCC(OC)CC4)n3)cc21 [Example 164, [1-(2-Methoxy-1,1-dimethylethyl)-2-methyl-1H-imidazo[4,5-c]pyridin-6-yl]-[2-(4-methoxypiperidin-1-yl)pyrimidin-4-yl]amine]"
2,0.167 µM,"C[C@H](n1c([C@@H](C)O)nc2cnc(Nc3ccnc(-c4cnn(S(=O)(=O)C5CC5)c4)n3)cc21)C(F)(F)F [Example 572, (R)-1-[6-[2-(1-Cyclopropanesulfonyl-1H-pyrazol-4-yl)-pyrimidin-4-ylamino]-1-((S)-2,2,2-trifluoro-1-methylethyl)-1H-imidazo[4,5-c]pyridin-2-yl]-ethanol]"

# From patent US9890152B2 (Genentech, Inc., priority 2012, dated 2018)
